{"source": "patent US5204352A", "about": "“Compounds exhibiting anti-parasitic activity and a method for their use” (The United States of America as represented by the …, priority 1987, dated 1993)", "tested_on": "Trypanosoma rhodesiense", "test": "In vivo trypanocidal activity in infected mice (protocol based on Rane et al.)", "parameters": "Activity at dosage, value in parentheses (increase in survival): unit not given here", "conditions": "for Activity at dosage (C = Cures) / Activity at dosage, value in parentheses (increase in survival): peritoneal (Table 2)", "description": "The compounds of the present invention were evaluated biologically in vivo with groups of 5 mice at various dose levels. Unless otherwise indicated, the data are for subcutaneous administration. Dose levels marked with an asterisk are for peritoneal administration in a HEC+T medium. In addition, Table 2 present results of peritoneal administration with substituted quanylhydrazones. The biological evaluation was done according to a standard protocol based on the method described by Rane et al., Amer. J. Trop. Med Hyg. 25:395 (1976). […]", "key": {"[1]": {"conditions": "424* mg/kg, peritoneal in HEC+T medium (Table I)"}, "[2]": {"conditions": "106* mg/kg, peritoneal in HEC+T medium (Table I)"}, "[3]": {"conditions": "212* mg/kg, peritoneal in HEC+T medium (Table I)"}, "[4]": {"conditions": "6.6* mg/kg, peritoneal in HEC+T medium (Table I)"}}, "data": [{"molecule": "C=CC[n+]1c(-c2ccc(NC(C)=O)cc2)cn2cc(C)ccc21", "note": "[BK02557]", "values": [{"measurement": "Increase in survival", "setting": "[1]", "value": 3.8, "unit": "days"}, {"measurement": "Trypanocidal activity, cures", "setting": "[1]", "value": "2/10"}]}, {"molecule": "C=CC[n+]1c(-c2ccc(N(CC)C(C)=O)cc2)cn2ccccc21", "note": "[BK02566]", "values": [{"measurement": "Increase in survival", "setting": "[2]", "value": 2.8, "unit": "days"}, {"measurement": "Trypanocidal activity, cures", "setting": "[2]", "value": "1/10"}, {"measurement": "Increase in survival", "setting": "[3]", "value": 4.7, "unit": "days"}, {"measurement": "Trypanocidal activity, cures", "setting": "[3]", "value": "1/5"}, {"measurement": "Increase in survival", "setting": "[1]", "value": 9.9, "unit": "days"}, {"measurement": "Trypanocidal activity, cures", "setting": "[1]", "value": "5/10"}]}, {"molecule": "C[n+]1c(-c2ccc(C(N)=S)cc2)cn2ccccc21", "note": "[BK11743]", "values": [{"measurement": "Increase in survival", "setting": "6.65 mg/kg, subcutaneous", "value": 2.7, "unit": "days"}, {"measurement": "Trypanocidal activity, cures", "setting": "6.65 mg/kg, subcutaneous", "value": "2/10"}, {"measurement": "Increase in survival", "setting": "13.3 mg/kg, subcutaneous", "value": 3.3, "unit": "days"}, {"measurement": "Trypanocidal activity, cures", "setting": "13.3 mg/kg, subcutaneous", "value": "1/10"}, {"measurement": "Increase in survival", "setting": "26 mg/kg, subcutaneous", "value": 4.0, "unit": "days"}, {"measurement": "Trypanocidal activity, cures", "setting": "26 mg/kg, subcutaneous", "value": "3/15"}, {"measurement": "Trypanocidal activity, cures", "setting": "53 mg/kg, subcutaneous", "value": "5/5"}, {"measurement": "Increase in survival", "setting": "106 mg/kg, subcutaneous", "value": 3.2, "unit": "days"}, {"measurement": "Trypanocidal activity, cures", "setting": "106 mg/kg, subcutaneous", "value": "5/10"}, {"measurement": "Increase in survival", "setting": "212 mg/kg, subcutaneous", "value": 17.0, "unit": "days"}, {"measurement": "Trypanocidal activity, cures", "setting": "212 mg/kg, subcutaneous", "value": "4/5"}]}, {"molecule": "C=CC[n+]1c(-c2ccc(C=NNC(=N)N)cc2)cn2ccccc21", "note": "[BK11770]", "values": [{"measurement": "Trypanocidal activity, cures", "setting": "13.3 mg/kg, subcutaneous", "value": "5/5"}]}, {"molecule": "C[n+]1c(-c2ccc(C=NNC(=N)N)cc2)cn2cc(Cl)ccc21", "note": "[BK13069]", "values": [{"measurement": "Trypanocidal activity, cures", "setting": "6.65 mg/kg, subcutaneous", "value": "5/5"}]}, {"molecule": "Cc1ccc2n(c1)cc(-c1ccc(C=NNC(=N)N)cc1)[n+]2C", "note": "[BK13078]", "values": [{"measurement": "Increase in survival", "setting": "0.21 mg/kg, subcutaneous", "value": 5.3, "unit": "days"}, {"measurement": "Trypanocidal activity, cures", "setting": "0.21 mg/kg, subcutaneous", "value": "2/5"}, {"measurement": "Increase in survival", "setting": "0.42 mg/kg, subcutaneous", "value": 7.0, "unit": "days"}, {"measurement": "Trypanocidal activity, cures", "setting": "0.42 mg/kg, subcutaneous", "value": "4/5"}, {"measurement": "Activity at dosage (C = Cures)", "setting": "0.8 mg/kg", "value": "INAC"}, {"measurement": "Trypanocidal activity, cures", "setting": "0.83 mg/kg, subcutaneous", "value": "10/10"}, {"measurement": "Increase in survival", "setting": "1.66 mg/kg, subcutaneous", "value": 11.0, "unit": "days"}, {"measurement": "Trypanocidal activity, cures", "setting": "1.66 mg/kg, subcutaneous", "value": "9/10"}, {"measurement": "Activity at dosage (C = Cures)", "setting": "1.7 mg/kg", "value": "INAC"}, {"measurement": "Activity at dosage, value in parentheses (increase in survival)", "setting": "3.3 mg/kg", "value": 1.0}, {"measurement": "Increase in survival", "setting": "3.3 mg/kg, subcutaneous", "value": 1.0, "unit": "days"}, {"measurement": "Trypanocidal activity, cures", "setting": "3.33 mg/kg, subcutaneous", "value": "5/5"}, {"measurement": "Trypanocidal activity, cures", "setting": "6.65 mg/kg, subcutaneous", "value": "5/5"}, {"measurement": "Activity at dosage, value in parentheses (increase in survival)", "setting": "6.7 mg/kg", "value": 7.0}, {"measurement": "Trypanocidal activity, cures", "setting": "13.3 mg/kg, subcutaneous", "value": "10/10"}, {"measurement": "Activity at dosage, value in parentheses (increase in survival)", "setting": "26 mg/kg", "value": 10.6}, {"measurement": "Trypanocidal activity, cures", "setting": "26.5 mg/kg, subcutaneous", "value": "15/15"}, {"measurement": "Activity at dosage, value in parentheses (increase in survival)", "setting": "424 mg/kg", "value": 12.5}, {"measurement": "Increase in survival", "setting": "[4]", "value": 7.0, "unit": "days"}, {"measurement": "Trypanocidal activity, cures", "setting": "[4]", "value": "3/5"}, {"measurement": "Trypanocidal activity, cures", "setting": "13* mg/kg, peritoneal in HEC+T medium (Table I)", "value": "10/10"}, {"measurement": "Trypanocidal activity, cures", "setting": "26* mg/kg, peritoneal in HEC+T medium (Table I)", "value": "13/15"}, {"measurement": "Trypanocidal activity, cures", "setting": "53* mg/kg, peritoneal in HEC+T medium (Table I)", "value": "10/10"}, {"measurement": "Trypanocidal activity, cures", "setting": "[2]", "value": "10/10"}, {"measurement": "Trypanocidal activity, cures", "setting": "[3]", "value": "5/5"}]}, {"molecule": "Cc1ccc2n(c1)cc(-c1ccc(C(N)=NO)cc1)[n+]2C", "note": "[BK13087]", "values": [{"measurement": "Increase in survival", "setting": "53 mg/kg, subcutaneous", "value": 2.3, "unit": "days"}, {"measurement": "Trypanocidal activity, cures", "setting": "53 mg/kg, subcutaneous", "value": "2/5"}]}, {"molecule": "C[n+]1c(-c2ccc(C(=N)N)cc2)cn2ccccc21", "note": "[BK16471]", "values": [{"measurement": "Increase in survival", "setting": "13.3 mg/kg, subcutaneous", "value": 3.2, "unit": "days"}, {"measurement": "Trypanocidal activity, cures", "setting": "13.3 mg/kg, subcutaneous", "value": "2/10"}, {"measurement": "Trypanocidal activity, cures", "setting": "26.5 mg/kg, subcutaneous", "value": "10/10"}, {"measurement": "Trypanocidal activity, cures", "setting": "53 mg/kg, subcutaneous", "value": "5/5"}]}, {"molecule": "C[n+]1c(-c2ccc(C(N)=NO)cc2)cn2ccsc21", "note": "[BK16499]", "values": [{"measurement": "Increase in survival", "setting": "26 mg/kg, subcutaneous", "value": 2.7, "unit": "days"}, {"measurement": "Trypanocidal activity, cures", "setting": "26 mg/kg, subcutaneous", "value": "2/10"}, {"measurement": "Increase in survival", "setting": "53 mg/kg, subcutaneous", "value": 4.7, "unit": "days"}, {"measurement": "Trypanocidal activity, cures", "setting": "53 mg/kg, subcutaneous", "value": "2/10"}]}, {"molecule": "C[n+]1c(-c2ccc(C(=N)N)cc2)cn2ccsc21", "note": "[BK21874]", "values": [{"measurement": "Increase in survival", "setting": "26.5 mg/kg, subcutaneous", "value": 3.6, "unit": "days"}, {"measurement": "Trypanocidal activity, cures", "setting": "26.5 mg/kg, subcutaneous", "value": "1/10"}, {"measurement": "Increase in survival", "setting": "53 mg/kg, subcutaneous", "value": 2.5, "unit": "days"}, {"measurement": "Trypanocidal activity, cures", "setting": "53 mg/kg, subcutaneous", "value": "2/5"}, {"measurement": "Increase in survival", "setting": "106 mg/kg, subcutaneous", "value": 12.9, "unit": "days"}, {"measurement": "Trypanocidal activity, cures", "setting": "106 mg/kg, subcutaneous", "value": "9/10"}, {"measurement": "Trypanocidal activity, cures", "setting": "212 mg/kg, subcutaneous", "value": "5/5"}]}, {"molecule": "C[n+]1c(-c2ccc(C=NNC(=N)N)cc2)cn2ccsc21", "note": "[BK21909]", "values": [{"measurement": "Trypanocidal activity, cures", "setting": "13.3 mg/kg, subcutaneous", "value": "5/5"}]}, {"molecule": "C[n+]1c(-c2ccc(C=NNC(N)=O)cc2)cn2ccsc21", "note": "[BK21918]", "values": [{"measurement": "Increase in survival", "setting": "26.5 mg/kg, subcutaneous", "value": 4.8, "unit": "days"}, {"measurement": "Increase in survival", "setting": "53 mg/kg, subcutaneous", "value": 4.5, "unit": "days"}]}, {"molecule": "CCN(CC)CCNC(=N)c1ccc(-c2cn3ccccc3[n+]2C)cc1", "note": "[BK23001]", "values": [{"measurement": "Increase in survival", "setting": "13.3 mg/kg, subcutaneous", "value": 6.6, "unit": "days"}]}, {"molecule": "Cn1cc(-c2ccc(C=NNC(N)=O)cc2)[n+](C)c1", "note": "[BK23994]", "values": [{"measurement": "Increase in survival", "setting": "424 mg/kg, subcutaneous", "value": 5.8, "unit": "days"}]}, {"molecule": "C=CC[n+]1c(-c2ccc(C=NNc3ncn[nH]3)cc2)cn2ccccc21", "note": "[BK24017]", "values": [{"measurement": "Increase in survival", "setting": "26 mg/kg, subcutaneous", "value": 2.3, "unit": "days"}, {"measurement": "Trypanocidal activity, cures", "setting": "26 mg/kg, subcutaneous", "value": "4/10"}, {"measurement": "Increase in survival", "setting": "53 mg/kg, subcutaneous", "value": 4.6, "unit": "days"}]}, {"molecule": "C[n+]1c(-c2ccc(-c3n[nH]c(N)n3)cc2)cn2ccsc21", "note": "[BK42720]", "values": [{"measurement": "Trypanocidal activity, cures", "setting": "26.5 mg/kg, subcutaneous", "value": "5/5"}]}]}
